Measured values as given in patent US8426202B2, “Cell culture medium” (Cellca GmbH, priority 2005, dated 2013).
“And” between values parts separate entries of the source, which are not always exact repeats. Equal entries are not always repeated.

Assays:
[1] = tested on: CHO cell line that expresses an antibody; test: Fed-batch experiment with the substances according to the invention (Example 2, Table 2); assay type: cell-based, Chinese hamster; design: Viabil.: concentration or dose not given beside the values
Description: (§1) Feed took place at regular intervals.

[2] = tested on: CHO cell line that expresses an antibody; test: Batch experiment with the substances according to the invention (Example 1); assay type: cell-based, Chinese hamster; details: batch mode, substance 0.5-1 g/l, basal medium glucose 4.7 g/l, glutamine […]
Description: Cells were stored in the gas phase of liquid nitrogen. One to two ampoules were thawed in nutrient medium preheated to 37° C. and transferred to spinner bottles, shaking flasks or T-bottles. In the first few days of cultivation the medium was changed, depending on the clone.
Depending on the clone, cells were split either every second day or every third day or after two and three days alternately into new medium, i.e. a portion of the cell suspension was removed from culture and a smaller portion of the cell suspension was reused as inoculum for the next culture. This inoculum was made up with fresh prewarmed nutrient medium. Cells were incubated at 37° C. in an incubator with a CO2 atmosphere. An alternative for incubating cells was cultivation in an incubation chamber at 37° C., in this way cells were held in culture for several passages. A passage means a cultivation time of two to three days. At various points of time, cell suspension was taken from strain maintenance and used as inoculum for experiments. The experiments were carried out in various cultivation systems, for example in spinner bottles, T-bottles, shaking flasks, culture tubes or in controlled bioreactors.
as §1

## NCCC[C@H](N)C(=O)O [Ornithine]
[1]; day 0, fed-batch
  Viabil.: 91%
[1]; day 2, fed-batch
  Viabil.: 98% and 97%
[1]; day 5, fed-batch
  Viabil.: 96%
[1]; day 8, fed-batch
  Viabil.: 94%
[2]; day 0
  Gln: 1.53 mM
  Glucose: 4.69 g/L
  Lactate: 0 g/L
  Specific Glutamin consumption (Gln/VCD): 1.49
  Specific ammonia production (NH4/VCD): 1.18
  Specific glucose consumption (Gluc/VCD): 4.55
  Specific lactate production (Lac/VCD): 0.00
  Viabil.: 96%
[2]; day 3
  Gln: 0.92 mM
  Glucose: 4.24 g/L
  Lactate: 0.71 g/L
  Specific Glutamin consumption (Gln/VCD): 0.15
  Specific ammonia production (NH4/VCD): 0.29
  Specific glucose consumption (Gluc/VCD): 0.67
  Specific lactate production (Lac/VCD): 0.11
  Viabil.: 97%
[2]; day 6
  Gln: 0.11 mM
  Glucose: 2.7 g/L
  Specific Glutamin consumption (Gln/VCD): 0.00
  Specific ammonia production (NH4/VCD): 0.06
  Specific glucose consumption (Gluc/VCD): 0.06
  Specific lactate production (Lac/VCD): 0.02
  Viabil.: 98%
[2]; day 8
  Gln: 0.37 mM
  Specific Glutamin consumption (Gln/VCD): 0.02
  Specific ammonia production (NH4/VCD): 0.14
  Specific glucose consumption (Gluc/VCD): 0.09
  Specific lactate production (Lac/VCD): 0.05
  Viabil.: 89%
[2]; day 11
  Gln: 0.46 mM
  Glucose: 0.53 g/L
  Lactate: 1.26 g/L
  Specific Glutamin consumption (Gln/VCD): 0.03
  Specific ammonia production (NH4/VCD): 0.22
  Specific glucose consumption (Gluc/VCD): 0.04
  Specific lactate production (Lac/VCD): 0.09
  Viabil.: 60%

## O=C([O-])/C=C/C(=O)[O-].[Na+].[Na+] [Sodium fumarate]
[1]; day 0, fed-batch
  Total Cell Density TCD: 1.5 E5/ml
  Viabil.: 91%
  Viable Cell Density (VCD): 1.37 E5/ml
[1]; day 2, fed-batch
  Total Cell Density TCD: 3.6 E5/ml
  Viabil.: 97%
  Viable Cell Density (VCD): 3.5 E5/ml
[1]; day 5, fed-batch
  Total Cell Density TCD: 13.9 E5/ml and 13.2 E5/ml
  Viabil.: 96% and 97%
  Viable Cell Density (VCD): 13.4 E5/ml and 12.8 E5/ml
[1]; day 8, fed-batch
  Total Cell Density TCD: 43.9 E5/ml and 43.8 E5/ml
  Viabil.: 92%
  Viable Cell Density (VCD): 40.3 E5/ml and 40.2 E5/ml
[2]; day 0
  Gln: 1.53 mM
  Glucose: 4.69 g/L
  Lactate: 0 g/L
  NH4: 1.22 mM
  Specific Glutamin consumption (Gln/VCD): 1.49
  Specific ammonia production (NH4/VCD): 1.18
  Specific glucose consumption (Gluc/VCD): 4.55
  Specific lactate production (Lac/VCD): 0.00
  Total Cell Density TCD: 1.07 E5/ml
  Viabil.: 96%
  Viable Cell Density (VCD): 1.03 E5/ml
[2]; day 3
  Gln: 0.72 mM
  Glucose: 3.98 g/L
  Lactate: 0.85 g/L
  NH4: 1.84 mM
  Specific Glutamin consumption (Gln/VCD): 0.10
  Specific ammonia production (NH4/VCD): 0.26
  Specific glucose consumption (Gluc/VCD): 0.57
  Specific lactate production (Lac/VCD): 0.12
  Total Cell Density TCD: 7.1 E5/ml
  Viabil.: 99%
  Viable Cell Density (VCD): 7 E5/ml
[2]; day 6
  Gln: 0.24 mM
  Glucose: 2.61 g/L
  Lactate: 1.19 g/L
  NH4: 2.49 mM
  Specific Glutamin consumption (Gln/VCD): 0.01
  Specific ammonia production (NH4/VCD): 0.06
  Specific glucose consumption (Gluc/VCD): 0.06
  Specific lactate production (Lac/VCD): 0.03
  Total Cell Density TCD: 41.5 E5/ml
  Viabil.: 98%
  Viable Cell Density (VCD): 40.6 E5/ml
[2]; day 8
  Gln: 0.37 mM
  Glucose: 1.68 g/L
  Lactate: 1.08 g/L
  NH4: 2.58 mM
  Specific Glutamin consumption (Gln/VCD): 0.02
  Specific ammonia production (NH4/VCD): 0.14
  Specific glucose consumption (Gluc/VCD): 0.09
  Specific lactate production (Lac/VCD): 0.06
  Total Cell Density TCD: 22.3 E5/ml
  Viabil.: 86%
  Viable Cell Density (VCD): 19.1 E5/ml
[2]; day 11
  Gln: 0.47 mM
  Glucose: 0.46 g/L
  Lactate: 1.46 g/L
  NH4: 3.06 mM
  Specific Glutamin consumption (Gln/VCD): 0.03
  Specific ammonia production (NH4/VCD): 0.21
  Specific glucose consumption (Gluc/VCD): 0.03
  Specific lactate production (Lac/VCD): 0.10
  Total Cell Density TCD: 26.2 E5/ml
  Viabil.: 55%
  Viable Cell Density (VCD): 14.3 E5/ml

## CC(=O)C(=O)[O-].[Na+] [Sodium pyruvate]
[1]; day 0, fed-batch
  Total Cell Density TCD: 1.5 E5/ml
  Viabil.: 91%
  Viable Cell Density (VCD): 1.37 E5/ml
[1]; day 2, fed-batch
  Total Cell Density TCD: 3.2 E5/ml
  Viabil.: 97%
  Viable Cell Density (VCD): 3.1 E5/ml
[1]; day 5, fed-batch
  Total Cell Density TCD: 13.7 E5/ml
  Viabil.: 99%
  Viable Cell Density (VCD): 13.5 E5/ml
[1]; day 8, fed-batch
  Total Cell Density TCD: 46 E5/ml
  Viabil.: 90%
  Viable Cell Density (VCD): 41.5 E5/ml
[2]; day 0
  Gln: 1.53 mM
  Glucose: 4.69 g/L
  Lactate: 0 g/L
  NH4: 1.22 mM
  Specific Glutamin consumption (Gln/VCD): 1.49
  Specific ammonia production (NH4/VCD): 1.18
  Specific glucose consumption (Gluc/VCD): 4.55
  Specific lactate production (Lac/VCD): 0.00
  Total Cell Density TCD: 1.07 E5/ml
  Viabil.: 96%
  Viable Cell Density (VCD): 1.03 E5/ml
[2]; day 3
  Gln: 1.02 mM
  Glucose: 4.55 g/L
  Lactate: 0.38 g/L
  NH4: 1.72 mM
  Specific Glutamin consumption (Gln/VCD): 0.13
  Specific ammonia production (NH4/VCD): 0.22
  Specific glucose consumption (Gluc/VCD): 0.59
  Specific lactate production (Lac/VCD): 0.05
  Total Cell Density TCD: 7.8 E5/ml
  Viabil.: 99%
  Viable Cell Density (VCD): 7.7 E5/ml
[2]; day 6
  Gln: 0.25 mM
  Glucose: 2.81 g/L
  Lactate: 1.32 g/L
  NH4: 1.91 mM
  Specific Glutamin consumption (Gln/VCD): 0.01
  Specific ammonia production (NH4/VCD): 0.04
  Specific glucose consumption (Gluc/VCD): 0.06
  Specific lactate production (Lac/VCD): 0.03
  Total Cell Density TCD: 45 E5/ml
  Viabil.: 98%
  Viable Cell Density (VCD): 44 E5/ml
[2]; day 8
  Gln: 0.38 mM
  Glucose: 1.79 g/L
  Lactate: 1.34 g/L
  NH4: 2.23 mM
  Specific Glutamin consumption (Gln/VCD): 0.02
  Specific ammonia production (NH4/VCD): 0.10
  Specific glucose consumption (Gluc/VCD): 0.08
  Specific lactate production (Lac/VCD): 0.06
  Total Cell Density TCD: 24.5 E5/ml
  Viabil.: 88%
  Viable Cell Density (VCD): 21.6 E5/ml
[2]; day 11
  Gln: 0.49 mM
  Glucose: 0.63 g/L
  Lactate: 1.93 g/L
  NH4: 3.06 mM
  Specific Glutamin consumption (Gln/VCD): 0.05
  Specific ammonia production (NH4/VCD): 0.30
  Specific glucose consumption (Gluc/VCD): 0.06
  Specific lactate production (Lac/VCD): 0.19
  Total Cell Density TCD: 24.2 E5/ml
  Viabil.: 43%
  Viable Cell Density (VCD): 10.3 E5/ml
